How the values were obtained:
[1] = Body weight and major organ histology (Example 8); assay type: in vivo, nude mice; conditions: weekly i.v. for 3 weeks
Experimental: (§1) Nude mouse studies to determine the effect of doxorubicin-loaded NP3 on tumor shrinkage. One week after tumor implantation, the KB-31 tumor-bearing mice were randomly divided into four groups of five animals each. These groups were used for comparing the effects of saline, empty nanoparticles, free doxorubicin, and doxorubicin-loaded NP3, respectively. The latter group received intravenous administration of 120 mg/kg (˜2.4 mg per animal) NP3, which is equivalent to a doxorubicin dose of 4 mg/kg (˜0.08 mg per animal), weekly for 3 weeks. The free doxorubicin group received the same drug dose weekly for 3 weeks, while the group receiving empty NP3 was treated with 120 mg/kg on a weekly basis. The fourth group was treated with saline as control. The body weight and tumor size were accurately recorded twice per week. Tumor weight was calculated according to the formula: Tumor weight (mg)=(length in mm)× (width in mm)^2/2 (Meng et al., ACS Nano, vol. 4, pp. 2773-2783, 2010).
Appropriate size sections of the tumor, liver, kidney, spleen, lung, heart, and brain were fixed in 10% formalin and then embedded into paraffin. Tissue sections of 4 μm thickness were mounted on glass slides by the UCLA Division of Laboratory Animal Medicine (DLAM) diagnostic laboratory services. The sections were stained with hematoxylin-eosin (H&E) and examined by light microscopy. The slides were read by an experienced veterinary pathologist.

KB-31 tumor xenograft [2] = assay: Tumor growth inhibition by doxorubicin-loaded NP3; assay type: in vivo, nude mice; conditions: 4 mg/kg doxorubicin i.v. weekly for 3 weeks, tumor weight at sacrifice
Experimental: Athymic BALB/c nu/nu female mice (6 weeks) were purchased from the Charles River Laboratory, and maintained under pathogen-free conditions. All animal experiments were performed using protocols approved by the UCLA Animal Research Committee. The tumor cell suspension (0.1 ml, 5×10^6 cells/mL) was injected subcutaneously into the mice. To perform imaging, the tumor-bearing animals were used 2.5 weeks after tumor implantation. In the tumor growth inhibition experiments, the nude mice were randomly divided into 4 groups and received the listed range of treatments, which commenced 1 week after tumor implantation.
as §1, with “The free doxorubicin group received the same drug dose weekly for 3 weeks, while the group receiving empty NP3 was treated with 120 mg/kg on a weekly basis. The fourth group was treated with saline as control.” left out

[3] = cited from earlier work
[4] = Blood biochemistry to assess possible toxicity (Example 8); assay type: in vivo; conditions: serum, tumor-bearing nude mice, weekly i.v. for 3 weeks, day 21
Experimental: as §1
Following the animal experiments described above, the mice were sacrificed on 21st day and serum collected by centrifuging the whole blood at 5,000 rpm for 15 min. The biochemical parameters, including cholesterol (CHOL), triglycerides (TRG), alanine aminotransferase (ALT), aspartate aminotransferase (AST), total bilirubin (TBILI), glucose (GLU), inorganic phosphorus (PHOS), total protein (TPR), calcium (CAL), blood urea nitrogen (BUN), creatinine (CRE), and albumin (ALB) were assayed by UCLA Division of Laboratory Animal Medicine (DLAM) diagnostic laboratory services.

KB-V1 cells [5] = assay: MTS cytotoxicity of free Dox, KB-V1; assay type: cell-based; conditions: 72 hrs
Experimental: (§2) KB-31 and KB-V1 cells were plated at 1×10^4 cells per well in 96 well plate. The cells were treated with free Dox in solution in doses ranging from 0.05-3.2 μg/ml (KB-31) and 0.1-64 μg/ml (KB-V1) for 72 hrs. The cell viability was determined by the MTS assay. The treated cells were incubated with MTS working solution for 2-3 hrs before measurement. The mean absorbance of non-exposed cells served as the reference value for calculating 100% cellular viability. To view Pgp expression, the cells were washed in PBS and the pellets lysed in a buffer containing Triton X-100 and protease inhibitors after centrifugation. The protein content of the supernatants was determined by the Bradford method. 100 μg total protein was electrophoresed by 10% SOS-PAGE and transferred to a PVDF membrane. After blocking, the membranes were incubated with 1:1000 dilution of primary monoclonal antibody to MDR1 (anti-Pgp C219, Abeam). The membranes were overlayed with goat anti-mouse secondary antibody (1:1000 dilution) before the addition of the HRP-conjugated streptavidin-biotin complex. The proteins were detected using ECL reagent according to the manufacturer's instructions.

KB-31 tumor xenograft [6] = assay: TUNEL staining of the tumor tissue; assay type: in vivo, nude mice; conditions: 4 mg/kg doxorubicin i.v. weekly for 3 weeks
Experimental: A section of the tumor from each animal was used for TUNEL staining. The slides containing the tumor section were washed, fixed, and permeabilized before performance of TUNEL staining according to the manufacturer's instructions (Invitrogen, Carlsbad, Calif.). Nuclei were stained by Hoechst 33342 dye. The number of TUNEL positive cells (green staining) was assessed under a fluorescent microscope (200×). The same sections were also used for recording of the red fluorescent images of the doxorubicin that was present in the particles or the tissues. At least three fields were counted by the same investigator to calculate the percentage of TUNEL positive cells.

KB-31 cells = assay: MTS cytotoxicity of free Dox, KB-31; assay type: cell-based; conditions: KB-31, free Dox, 72 hrs
Experimental: as §2

KB-V1 cells [7] = assay: Cytotoxicity of Dox formulations in KB-V1 cells (MTS, 72 hrs); assay type: cell-based; conditions: KB-V1, Tariquidar 50 nM
Experimental: To measure cytotoxicity of the different Dox formulations, KB-V1 cells were treated with free Dox, Dox-MSNP, PEI-Dox-MSNP and siRNA-PEI-Dox-MSNP, respectively. For the latter two particle types, incubation time was for 16 hrs before replenishment of the old medium with fresh complete DMEM and performance of a MTS assay at 72 hrs. Based on the absorption readout at 490 nm, the IC50 of free and Dox-loaded MSNP were calculated. The induction of apoptosis at 72 hours was assessed through the use of Annexin V-SYTOX Blue. Briefly, 5×10^5 cells were harvested and stained by FITC-Annexin V-SYTOX Blue working solution (Annexin V, Trevigen; SYTOX Blue, Invitrogen) at room temperature for 15 min. The cells were washed in binding buffer before performance of flow cytometry (Becton Dickinson, Mountain View, Calif.). Date analysis was performed by BD CellQuest. To confirm the flow data in which there may be a minor overlap of Dox with FITC-Annexin V, a TUNEL detection kit was used according to the manufacturer's instructions to confirm the induction of apoptosis. Briefly, 72 hrs following treatment with free Dox or Dox loaded particles, cells were washed, fixed, and permeabilized before TUNEL staining. The number of TUNEL-positive cells was assessed under a fluorescent microscope (200×). At least 3 fields were counted by the same investigator to calculate the percentage of TUNEL positive cells.

With `COc1cccc2c1C(=O)c1c(O)c3c(c(O)c1C2=O)C[C@@](O)(C(=O)CO)C[C@@H]3O[C@H]1C[C@H](N)[C@H](O)[C@H](C)O1.Cl` [Free Dox, doxorubicin hydrochloride] the kidney histology ([1]; H&E) was “glomerular swelling”, the liver histology ([1]; H&E) was “prominent hepatic steatosis” and the body weight ([1]; compared to saline) was “cyclical decrease in body weight”. For the same molecule, the tumor inhibition (KB-31 tumor xenograft [2]) was 70%, the pKa [3] was 8.2 and the ALB [4] was 2.4 ± 0.2 g/dL. For the same molecule, the ALT [4] was 36.8 ± 8.0 u/L, the AST [4] was 347.8 ± 73.9 U/L and the BUN [4] was 17.3 ± 2.6 mg/dL. It also gave a CAL [4] of 9.0 ± 0.5 mg/dL, a CHOL [4] of 97.8 ± 12.8 mg/dL and a CRE [4] of 0.3 ± 0.1 mg/dL. The GLU [4] was 102.5 ± 29.2 mg/dL, the PHOS [4] was 9.5 ± 0.8 mg/dL and the TBIL [4] was 0.4 ± 0.0 mg/dL. For the same molecule, the TPR [4] was 5.0 ± 0.4 g/dL, the TRG [4] was 91.5 ± 21.2 mg/dL and the “IC50 (MTS)” value (KB-V1 cells [5]) was 53.0 µg/mL. For the same molecule, the “TUNEL-positive cells in tumor tissue” value (KB-31 tumor xenograft [6]) was ~13% and the “IC50 (MTS)” value (KB-31 cells) was 0.21 µg/mL.

For `CCOc1ccc(-c2nc3ccc(-c4nc5ccc(N6CCN(C)CC6)cc5[nH]4)cc3[nH]2)cc1` [Hoechst 33342], the pKa [3] is listed as 11.9.

For `COc1cc2c(cc1OC)CN(CCc1ccc(NC(=O)c3cc(OC)c(OC)cc3NC(=O)c3cnc4ccccc4c3)cc1)CC2` [Tariquidar], the “effect of co-administration with free Dox on drug sensitivity” value (KB-V1 cells [7]) was “partially restores drug sensitivity”.

— US10343903B2, “Cationic polymer coated mesoporous silica nanoparticles and uses thereof” (The Regents of the University of California, priority 2010, dated 2019)
